Results on 1 compound are retold here after patent US20090018136A1, “METHODS AND COMPOSITIONS FOR THE TREATMENT OF VASCULAR DISEASE” (priority 2005, published 2009).

For series [1], the system named is hypertensive patients. The series can be described thus: Study 1: blood pressure and heart rate during 8 weeks of oral BH4. Type of series: in vivo, human. The protocol: Prior studies have used parenteral infusion of BH4 or a single oral dose; thus it was not known whether long-term oral BH4 over a period of days to weeks would result in a sustained improvement in endothelial dysfunction. […] Two studies were conducted to investigate the duration of action of oral BH4 and the response of hypertensive subjects to different doses of BH4. […] Patients were continued on their current anti-hypertensive therapy which remained unchanged. […] BH4 powder was obtained from Schircks Laboratories (Jona, Switzerland). BH4 when administered with vitamin C was compounded with vitamin C at a ratio of 1 mg of vitamin C/1 mg BH4 into appropriate sized capsules. Subjects were advised to keep the pills in a freezer or refrigerator. Eight subjects were recruited, 3 male, mean age 60.5±10.9 years. Subjects were assigned to one of two groups. One group received BH4 10 mg/kg/day (n=4) and the other group received 5 mg/kg/day (n=4) given in two divided doses orally for 8 weeks. These dosages were based on dosing of BH4 used in phenylketonuria. Weekly BP measurements were made throughout the treatment period, and at one week and 6 weeks after discontinuation. Mean blood pressure was calculated as: (SBP+2×DBP)/3. For both study 1 and study 2, the primary end point after statistical analysis was a reduction of systolic, mean and diastolic BP during BH4 therapy. Secondary end points included improvement of endothelial function as FMD. Linear mixed effects models for repeated measures data were used to analyze change in BP from baseline to end of treatment period and differences in change between 100 mg and 200 mg dose groups. A quadratic term for week was included in the model to account for non-linear trends over the treatment period. Dose, week and week squared were the main effect terms in the model; dose by week and dose by week squared were the interaction terms in the model. Significant interaction terms indicate a difference in the pattern of change between the two dose groups. FMD data was analyzed using the two-tailed student t-test.

Series [2] has as its system subjects with sickle cell disease. The series can be described thus: Phase 2a sickle cell disease study: endothelial function by EndoPAT. In kind it is in vivo, human. Conditions: preliminary findings, sickle cell disease patients treated with BH4. The method, then:
This Phase 2a multicenter, open-label, dose-escalation study is designed to assess the safety and biologic activity of once daily (for 2.5, 5, and 10 mg/kg/day doses) or twice daily (for the 20 mg/kg/day dose) oral administration of 4 escalating doses of 6R-BH4 to subjects with SCD. During an optional extension phase, the study will assess the safety, tolerability, and efficacy of extended treatment with 6R-BH4. Subjects will receive oral, once-daily (for 2.5, 5, and 10 mg/kg/day) or twice-daily (for 20 mg/kg/day) doses of 6R-BH4 during a 16-week dose-escalation phase, with dose levels increasing within subjects every 4 weeks, as follows: 2.5, 5, 10, and 20 mg/kg/day. Prior to dose escalation, the each subject will be evaluated with respect to safety profile during the previous dose level, using predefined parameters. […] Endothelial function will be evaluated using Doppler echocardiogram (DE), peripheral arterial tonometry (EndoPAT), and exhaled nitric oxide (NO). The symptoms of SCD (frequency of sickle cell crises and vaso-occlusive crises), along with changes in the 6-minute-walk (MW) test, will be monitored. […] The number of tablets will be determined by the dose of sapropterin dihydrochloride, rounded to the nearest 100 mg. […]

The conditions of series [3]: patients with Type II diabetes and coronary heart disease compared to control subjects; cited from earlier work.

For the compound `C[C@H](O)[C@H](O)[C@H]1CNc2nc(N)[nH]c(=O)c2N1` [BH4, tetrahydrobiopterin], in series [1] (Study 1), the “change in diastolic BP” value is recorded as “did not reach statistical significance”; the “change in heart rate with BH4” value is given as “no significant change”; the “differences between the 5 mg/kg and 10 mg/kg doses of BH4” value is on record as “no statistically significant differences”. Besides, in series [1] (Study 1, 6 weeks after discontinuation, p=ns compared to baseline), the “BP after discontinuation of therapy” value is recorded as “returned toward pre-treatment levels”. In addition, the “systolic BP lower by a mean of” value in series [1] (Study 1, after 3 weeks, p=0.004) was found to be 13±9 mmHg. Moreover, in series [1] (Study 1, after 5 weeks, p=0.04, persisted for the 8 weeks of treatment), the “systolic BP lower by a mean of” value was 15±15 mmHg. The “reduction in systolic BP with BH4” value in series [1] (Study 1, combined group (5 and 10 mg/kg/day oral, two divided doses, 8 weeks), p=0.005 quadratic trend) was “significant reduction”. In series [1] (Study 1, combined group, 8 weeks, p=0.01), the “reduction in mean arterial BP with BH4” value is recorded as “significant reduction”. Further, in series [1] (continuous therapy, without tachyphylaxis), the “duration for which BP reduction was sustained” value is reported as “up to 8 weeks”. Also, the “endothelial function as measured by the EndoPAT device” value in series [2] is reported as “improvement”. In addition, the insulin sensitivity entry in series [3] is “increases”.
